The source made the active and inactive calls. No cut-off for these calls is given here.
Tested on: Candida albicans
Assay: Antifungal activity against Candida albicans
Format: functional, organism-based

SMILES | Activity
COc1ccc2cc1Oc1ccc(cc1)C[C@H]1c3cc(OC)c(OC)c(c3CCN1C)Oc1c(O)c(OC)cc3c1[C@H](C2)N(C)CC3 | inactive
COc1cc(C[C@H]2c3cc(OC)c(OC)cc3CCN2C)c(Oc2cc3c(cc2OC)-c2c(OC)c(OC)cc4c2[C@H](C3)N(C)CC4)cc1OC | inactive
COc1ccc2cc1Oc1ccc(cc1)C[C@H]1c3cc(OC)c(OC)c(c3CCN1C)Oc1c(OC)c(OC)cc3c1[C@H](C2)N(C)CC3 | inactive
COc1ccc2c(c1)-c1c(OC)c(OC)cc3c1[C@H](C2)N(C)CC3 | inactive

Tested on: Enterococcus faecalis
Assay: Antibacterial activity against Streptococcus faecalis
Format: functional, organism-based

SMILES | Activity
COc1ccc2cc1Oc1ccc(cc1)C[C@H]1c3cc(OC)c(OC)c(c3CCN1C)Oc1c(O)c(OC)cc3c1[C@H](C2)N(C)CC3 | inactive
COc1cc(C[C@H]2c3cc(OC)c(OC)cc3CCN2C)c(Oc2cc3c(cc2OC)-c2c(OC)c(OC)cc4c2[C@H](C3)N(C)CC4)cc1OC | inactive
COc1ccc2cc1Oc1ccc(cc1)C[C@H]1c3cc(OC)c(OC)c(c3CCN1C)Oc1c(OC)c(OC)cc3c1[C@H](C2)N(C)CC3 | inactive
COc1ccc2c(c1)-c1c(OC)c(OC)cc3c1[C@H](C2)N(C)CC3 | inactive

Tested on: Klebsiella pneumoniae
Assay: Antibacterial activity against Klebsiella pneumoniae
Format: functional, organism-based

SMILES | Activity
COc1ccc2cc1Oc1ccc(cc1)C[C@H]1c3cc(OC)c(OC)c(c3CCN1C)Oc1c(O)c(OC)cc3c1[C@H](C2)N(C)CC3 | inactive
COc1cc(C[C@H]2c3cc(OC)c(OC)cc3CCN2C)c(Oc2cc3c(cc2OC)-c2c(OC)c(OC)cc4c2[C@H](C3)N(C)CC4)cc1OC | inactive
COc1ccc2cc1Oc1ccc(cc1)C[C@H]1c3cc(OC)c(OC)c(c3CCN1C)Oc1c(OC)c(OC)cc3c1[C@H](C2)N(C)CC3 | inactive
COc1ccc2c(c1)-c1c(OC)c(OC)cc3c1[C@H](C2)N(C)CC3 | inactive

Tested on: Escherichia coli
Assay: Antibacterial activity against Escherichia coli
Format: functional, organism-based

SMILES | Activity
COc1ccc2cc1Oc1ccc(cc1)C[C@H]1c3cc(OC)c(OC)c(c3CCN1C)Oc1c(O)c(OC)cc3c1[C@H](C2)N(C)CC3 | inactive
COc1cc(C[C@H]2c3cc(OC)c(OC)cc3CCN2C)c(Oc2cc3c(cc2OC)-c2c(OC)c(OC)cc4c2[C@H](C3)N(C)CC4)cc1OC | inactive
COc1ccc2cc1Oc1ccc(cc1)C[C@H]1c3cc(OC)c(OC)c(c3CCN1C)Oc1c(OC)c(OC)cc3c1[C@H](C2)N(C)CC3 | inactive
COc1ccc2c(c1)-c1c(OC)c(OC)cc3c1[C@H](C2)N(C)CC3 | inactive

Tested on: Pseudomonas aeruginosa
Assay: Antibacterial activity against Pseudomonas aeruginosa
Format: functional, organism-based

SMILES | Activity
COc1ccc2cc1Oc1ccc(cc1)C[C@H]1c3cc(OC)c(OC)c(c3CCN1C)Oc1c(O)c(OC)cc3c1[C@H](C2)N(C)CC3 | inactive
COc1cc(C[C@H]2c3cc(OC)c(OC)cc3CCN2C)c(Oc2cc3c(cc2OC)-c2c(OC)c(OC)cc4c2[C@H](C3)N(C)CC4)cc1OC | inactive
COc1ccc2cc1Oc1ccc(cc1)C[C@H]1c3cc(OC)c(OC)c(c3CCN1C)Oc1c(OC)c(OC)cc3c1[C@H](C2)N(C)CC3 | inactive
COc1ccc2c(c1)-c1c(OC)c(OC)cc3c1[C@H](C2)N(C)CC3 | inactive

Tested on: Staphylococcus aureus
Assay: Antibacterial activity against Staphylococcus aureus
Format: functional, organism-based

SMILES | Activity
COc1ccc2cc1Oc1ccc(cc1)C[C@H]1c3cc(OC)c(OC)c(c3CCN1C)Oc1c(O)c(OC)cc3c1[C@H](C2)N(C)CC3 | inactive
COc1cc(C[C@H]2c3cc(OC)c(OC)cc3CCN2C)c(Oc2cc3c(cc2OC)-c2c(OC)c(OC)cc4c2[C@H](C3)N(C)CC4)cc1OC | inactive
COc1ccc2cc1Oc1ccc(cc1)C[C@H]1c3cc(OC)c(OC)c(c3CCN1C)Oc1c(OC)c(OC)cc3c1[C@H](C2)N(C)CC3 | inactive
COc1ccc2c(c1)-c1c(OC)c(OC)cc3c1[C@H](C2)N(C)CC3 | inactive

Tested on: Cryptococcus neoformans
Assay: Antifungal activity against Cryptococcus neoformans
Format: functional, organism-based

SMILES | Activity
COc1ccc2cc1Oc1ccc(cc1)C[C@H]1c3cc(OC)c(OC)c(c3CCN1C)Oc1c(O)c(OC)cc3c1[C@H](C2)N(C)CC3 | inactive
COc1cc(C[C@H]2c3cc(OC)c(OC)cc3CCN2C)c(Oc2cc3c(cc2OC)-c2c(OC)c(OC)cc4c2[C@H](C3)N(C)CC4)cc1OC | inactive
COc1ccc2cc1Oc1ccc(cc1)C[C@H]1c3cc(OC)c(OC)c(c3CCN1C)Oc1c(OC)c(OC)cc3c1[C@H](C2)N(C)CC3 | inactive
COc1ccc2c(c1)-c1c(OC)c(OC)cc3c1[C@H](C2)N(C)CC3 | inactive

Tested on: Sporothrix schenckii
Assay: Antifungal activity against Sporotrichum schenckii
Format: functional, organism-based

SMILES | Activity
COc1ccc2cc1Oc1ccc(cc1)C[C@H]1c3cc(OC)c(OC)c(c3CCN1C)Oc1c(O)c(OC)cc3c1[C@H](C2)N(C)CC3 | inactive
COc1cc(C[C@H]2c3cc(OC)c(OC)cc3CCN2C)c(Oc2cc3c(cc2OC)-c2c(OC)c(OC)cc4c2[C@H](C3)N(C)CC4)cc1OC | inactive
COc1ccc2cc1Oc1ccc(cc1)C[C@H]1c3cc(OC)c(OC)c(c3CCN1C)Oc1c(OC)c(OC)cc3c1[C@H](C2)N(C)CC3 | inactive
COc1ccc2c(c1)-c1c(OC)c(OC)cc3c1[C@H](C2)N(C)CC3 | inactive

Tested on: Trichophyton mentagrophytes
Assay: Antifungal activity against Trichophyton mentagrophytes
Format: functional, organism-based

SMILES | Activity
COc1ccc2cc1Oc1ccc(cc1)C[C@H]1c3cc(OC)c(OC)c(c3CCN1C)Oc1c(O)c(OC)cc3c1[C@H](C2)N(C)CC3 | inactive
COc1cc(C[C@H]2c3cc(OC)c(OC)cc3CCN2C)c(Oc2cc3c(cc2OC)-c2c(OC)c(OC)cc4c2[C@H](C3)N(C)CC4)cc1OC | inactive
COc1ccc2cc1Oc1ccc(cc1)C[C@H]1c3cc(OC)c(OC)c(c3CCN1C)Oc1c(OC)c(OC)cc3c1[C@H](C2)N(C)CC3 | inactive
COc1ccc2c(c1)-c1c(OC)c(OC)cc3c1[C@H](C2)N(C)CC3 | inactive

Tested on: Aspergillus fumigatus
Assay: Antifungal activity against Aspergillus fumigatus
Format: functional, organism-based

SMILES | Activity
COc1ccc2cc1Oc1ccc(cc1)C[C@H]1c3cc(OC)c(OC)c(c3CCN1C)Oc1c(O)c(OC)cc3c1[C@H](C2)N(C)CC3 | inactive
COc1cc(C[C@H]2c3cc(OC)c(OC)cc3CCN2C)c(Oc2cc3c(cc2OC)-c2c(OC)c(OC)cc4c2[C@H](C3)N(C)CC4)cc1OC | inactive
COc1ccc2cc1Oc1ccc(cc1)C[C@H]1c3cc(OC)c(OC)c(c3CCN1C)Oc1c(OC)c(OC)cc3c1[C@H](C2)N(C)CC3 | inactive
COc1ccc2c(c1)-c1c(OC)c(OC)cc3c1[C@H](C2)N(C)CC3 | inactive

Reference: ChEMBL document CHEMBL1151384, “The Alkaloids of Thalictrum foliolosum” (J Nat Prod, 1982)
